Reference: patent US10351547B2, “Somatostatin modulators and uses thereof” (priority 2016, dated 2019)
Like-named read-outs stand apart in the source and are kept apart here.

Biological target: human SSTR2 (Homo sapiens (Human), UniProt P30874)
Experiment: Human SSTR2 intracellular cAMP functional assay for agonists (HTRF)
Type: cell-based
In short: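 Cells bearing human SSTR2 exposed to compound for 20 minutes at 37 °C; after lysis, cAMP measured by time-resolved fluorescence (HTRF) and converted via a standard curve. EC50 calculated from cAMP versus compound concentration.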

[1] = CHO-K1 cells stably expressing human SSTR2, NKH477-stimulated cAMP, read-out: EC50 (inhibition of cAMP activities via human SST2R)

Sequence of human SSTR2 (P30874 whole entry): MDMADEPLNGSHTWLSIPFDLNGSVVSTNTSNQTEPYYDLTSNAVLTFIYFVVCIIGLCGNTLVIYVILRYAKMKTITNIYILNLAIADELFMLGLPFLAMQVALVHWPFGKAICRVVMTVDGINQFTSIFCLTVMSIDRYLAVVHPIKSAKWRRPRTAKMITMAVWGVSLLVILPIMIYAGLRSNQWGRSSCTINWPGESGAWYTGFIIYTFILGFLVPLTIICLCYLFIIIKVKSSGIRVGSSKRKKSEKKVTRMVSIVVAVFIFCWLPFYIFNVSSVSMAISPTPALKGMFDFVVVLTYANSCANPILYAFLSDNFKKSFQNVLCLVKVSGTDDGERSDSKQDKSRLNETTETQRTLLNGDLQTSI

Structure (SMILES) | EC50 [1] | EC50
NC1CCN(c2c(-c3cc(F)cc(C(F)(F)F)c3)cnc3ccc(-c4cncc(F)c4C=NO)cc23)CC1 [2-176, 1-(6-{5-fluoro-4-[(hydroxyimino)methyl]pyridin-3-yl}-3-[3-fluoro-5-(trifluoromethyl)phenyl]quinolin-4-yl)piperidin-4-amine] | < 0.01 µM | 
COC(=O)Nc1nn(C)cc1-c1ccc2ncc(-c3cc(C)cc(F)c3)c(N3CCC(N)CC3)c2c1 [2-214, methyl N-{4-[4-(4-aminopiperidin-1-yl)-3-(3-fluoro-5-methylphenyl)quinolin-6-yl]-1-methyl-1H-pyrazol-3-yl}carbamate] | < 0.01 µM | 
Cc1cc(Cl)cc(-c2cnc3ncc(-c4cccc(C#N)c4O)cc3c2N2CCC(N)CC2)c1 [4-4, 3-[5-(4-aminopiperidin-1-yl)-6-(3-chloro-5-methylphenyl)-1,8-naphthyridin-3-yl]-2-hydroxybenzonitrile] | < 0.01 µM | 
CON=Cc1cncc(-c2ccc3ncc(-c4cc(F)cc(F)c4)c(N4CC[C@H]5NCCO[C@@H]5C4)c3c2)c1N (relative stereo) [2-266] | < 0.01 µM | 
NC1CCN(c2c(-c3cc(F)cc(F)c3)cnc3ccc(-c4c(O)c(F)cc(F)c4F)cc23)CC1 [2-150, 2-[4-(4-aminopiperidin-1-yl)-3-(3,5-difluorophenyl)quinolin-6-yl]-3,4,6-trifluorophenol] | < 0.01 µM | 
Cc1cc(F)cc(-c2cnc3ccc(-c4cc(F)cc(C#N)c4O)cc3c2N2CC(CNC(C)C)C2)c1 [2-25, 5-fluoro-3-[3-(3-fluoro-5-methylphenyl)-4-(3-{[(propan-2-yl)amino]methyl}azetidin-1-yl)quinolin-6-yl]-2-hydroxybenzonitrile] | < 0.01 µM | 
COCC(=O)Nc1c(F)cc(F)cc1-c1ccc2ncc(-c3cc(C)cc(F)c3)c(N3CCC(N)CC3)c2c1 [2-230, N-{2-[4-(4-aminopiperidin-1-yl)-3-(3-fluoro-5-methylphenyl)quinolin-6-yl]-4,6-difluorophenyl}-2-methoxyacetamide] | < 0.01 µM | 
COCCOc1c(C#N)cccc1-c1ccc2ncc(-c3cc(C)cc(F)c3)c(N3CC[C@@H](N)[C@@H](O)C3)c2c1 (racemic) [2-224, 3-{4-[cis-4-amino-3-hydroxypiperidin-1-yl]-3-(3-fluoro-5-methylphenyl)quinolin-6-yl}-2-(2-methoxyethoxy)benzonitrile] | < 0.01 µM | 
CO[C@@H]1CN(c2c(-c3cc(F)cc(F)c3)cnc3ccc(-c4cccc(C#N)c4O)cc23)CC[C@H]1N (relative stereo) [2-3, 3-{4-[trans-4-amino-3-methoxypiperidin-1-yl]-3-(3,5-difluorophenyl)quinolin-6-yl}-2-hydroxybenzonitrile] |  | < 0.01 µM
Cc1ccnc(-c2ccc3ncc(-c4cc(F)cc(F)c4)c(N4CC[C@H]5NCCO[C@@H]5C4)c3c2)c1N (relative stereo) [2-247, 2-{4-[trans-octahydro-1H-pyrido[3,4-b]morpholin-6-yl]-3-(3,5-difluorophenyl)quinolin-6-yl}-4-methylpyridin-3-amine] | < 0.01 µM | 
CON(C)C(=O)Nc1c(C#N)cc(F)c(F)c1-c1ccc2ncc(-c3cc(F)cc(F)c3)c(N3CCC(N)CC3)c2c1 [2-191, 1-{2-[4-(4-aminopiperidin-1-yl)-3-(3,5-difluorophenyl)quinolin-6-yl]-6-cyano-3,4-difluorophenyl}-3-methoxy-3-methylurea] | < 0.01 µM | 
N#Cc1cc(F)cc(-c2ccc3ncc(-c4cc(F)cc(F)c4)c(N4CC[C@H](N)[C@H](O)C4)c3c2)c1O (relative stereo) [2-63, 3-{4-[cis-4-amino-3-hydroxypiperidin-1-yl]-3-(3,5-difluorophenyl)quinolin-6-yl}-5-fluoro-2-hydroxybenzonitrile] | < 0.01 µM | 
COCOc1c(C#N)cc(F)cc1-c1ccc2ncc(-c3cc(C)cc(F)c3)c(N3CC(CNCCCO)C3)c2c1 [2-53, 5-fluoro-3-[3-(3-fluoro-5-methylphenyl)-4-(3-{[(3-hydroxypropyl)amino]methyl}azetidin-1-yl)quinolin-6-yl]-2-(methoxymethoxy)benzonitrile] | < 0.01 µM | 
N#Cc1cc(Cl)c(F)c(-c2ccc3ncc(-c4cc(F)cc(F)c4)c(N4CCC(N)CC4)c3c2)c1O [2-147, 3-[4-(4-aminopiperidin-1-yl)-3-(3,5-difluorophenyl)quinolin-6-yl]-5-chloro-4-fluoro-2-hydroxybenzonitrile] |  | 0.01 to 0.1 µM
Cc1cc(Cl)cc(-c2nnc3ccc(-c4cc(F)cc(C#N)c4O)cc3c2N2CCC(N)CC2)c1 [1-22, 3-[4-(4-aminopiperidin-1-yl)-3-(3-chloro-5-methylphenyl)cinnolin-6-yl]-5-fluoro-2-hydroxybenzonitrile] | < 0.01 µM | 
CONC(=O)Nc1c(F)cc(C#N)cc1-c1ccc2ncc(-c3cc(C)cc(F)c3)c(N3CCC(N)CC3)c2c1 [2-237, 1-{2-[4-(4-aminopiperidin-1-yl)-3-(3-fluoro-5-methylphenyl)quinolin-6-yl]-4-cyano-6-fluorophenyl}-3-methoxyurea] | < 0.01 µM | 

Structure (SMILES) | EC50 [1] | EC50
COCCNc1ncc(C#N)cc1-c1ccc2ncc(-c3cc(C)cc(F)c3)c(N3CCC(N)CC3)c2c1 [2-242, 5-[4-(4-aminopiperidin-1-yl)-3-(3-fluoro-5-methylphenyl)quinolin-6-yl]-6-[(2-methoxyethyl)amino]pyridine-3-carbonitrile] | < 0.01 µM | 
Cn1ncc(-c2ccc3ncc(-c4cc(F)cc(F)c4)c(N4CC[C@H]5NCCO[C@@H]5C4)c3c2)c1C=NO (relative stereo) [2-253, N-[(4-{4-[trans-octahydro-1H-pyrido[3,4-b]morpholin-6-yl]-3-(3,5-difluorophenyl)quinolin-6-yl}-1-methyl-1H-pyrazol-5-yl)methylidene]hydroxylamine] | < 0.01 µM | 
CN(C)C(=O)[C@@H]1CN(c2c(-c3cc(F)cc(F)c3)cnc3ccc(-c4cccc(C#N)c4O)cc23)CC[C@H]1N (relative stereo) [2-151, trans-4-amino-1-[6-(3-cyano-2-hydroxyphenyl)-3-(3,5-difluorophenyl)quinolin-4-yl]-N,N-dimethylpiperidine-3-carboxamide] | 0.1 to 1 µM | 
Cc1cc(F)cc(-c2cnc3ccc(-c4cc(F)cc(C#N)c4O)cc3c2N2CC(CNCCCO)C2)c1 [2-54, 5-fluoro-3-[3-(3-fluoro-5-methylphenyl)-4-(3-{[(3-hydroxypropyl)amino]methyl}azetidin-1-yl)quinolin-6-yl]-2-hydroxybenzonitrile] | < 0.01 µM | 
Cc1cc(F)cc(-c2cnc3ccc(-c4ccc5[nH]c(=O)[nH]c5c4)nc3c2N2CCC(N)CC2)c1 [3-4, 5-[8-(4-aminopiperidin-1-yl)-7-(3-fluoro-5-methylphenyl)-1,5-naphthyridin-2-yl]-2,3-dihydro-1H-1,3-benzodiazol-2-one] | < 0.01 µM | 
COC(=O)[C@@H]1CN(c2c(-c3cc(F)cc(F)c3)cnc3ccc(-c4cccc(C#N)c4O)cc23)CC[C@H]1N (relative stereo) [2-143, methyl trans-4-amino-1-[6-(3-cyano-2-hydroxyphenyl)-3-(3,5-difluorophenyl)quinolin-4-yl]piperidine-3-carboxylate] | < 0.01 µM | 
Oc1c(F)cncc1-c1ccc2ncc(-c3cc(F)cc(F)c3)c(N3CC[C@H]4NCCO[C@@H]4C3)c2c1 (relative stereo) [2-256] | 0.01 to 0.1 µM | 
COCCOc1c(C#N)cc(F)cc1-c1ccc2ncc(-c3cc(F)cc(F)c3)c(N3CC[C@H](N)[C@H](O)C3)c2c1 (relative stereo) [2-232, cis-3-{4-[4-amino-3-hydroxypiperidin-1-yl]-3-(3,5-difluorophenyl)quinolin-6-yl}-5-fluoro-2-(2-methoxyethoxy)benzonitrile] | < 0.01 µM | 
N#Cc1cccc(-c2ccc3ncc(-c4cc(F)cc(F)c4)c(N4CCC(N)CC4)c3c2)c1OCCO [2-65, 3-[4-(4-aminopiperidin-1-yl)-3-(3,5-difluorophenyl)quinolin-6-yl]-2-(2-hydroxyethoxy)benzonitrile] | < 0.01 µM | 
COCCOc1c(C#N)cccc1-c1ccc2ncc(-c3cc(F)cc(F)c3)c(N3CC[C@H](N)[C@H](O)C3)c2c1 (relative stereo) [2-225, cis-3-{4-[4-amino-3-hydroxypiperidin-1-yl]-3-(3,5-difluorophenyl)quinolin-6-yl}-2-(2-methoxyethoxy)benzonitrile] | < 0.01 µM | 
CCC(CO)NCC1CN(c2c(-c3cc(C)cc(F)c3)cnc3ccc(-c4cc(F)cc(C#N)c4O)cc23)C1 (centres unmarked) [2-41, 5-fluoro-3-[3-(3-fluoro-5-methylphenyl)-4-(3-{[(1-hydroxybutan-2-yl)amino]methyl}azetidin-1-yl)quinolin-6-yl]-2-hydroxybenzonitrile] |  | 0.01 to 0.1 µM
Cc1cc(F)cc(-c2cnc3ccc(-c4cc(F)cc(C#N)c4O)cc3c2N2CC(CNCC(C)(C)O)C2)c1 [2-40, 5-fluoro-3-[3-(3-fluoro-5-methylphenyl)-4-(3-{[(2-hydroxy-2-methylpropyl)amino]methyl}azetidin-1-yl)quinolin-6-yl]-2-hydroxybenzonitrile] | < 0.01 µM | 
Cc1cc(F)cc(-c2cnc3ccc(-c4cc(F)cc(C#N)c4O)cc3c2N2CC(CNC3CC3)C2)c1 [2-29, 3-[4-(3-cyclopropylaminomethyl-azetidin-1-yl)-3-(3-fluoro-5-methyl-phenyl)-quinolin-6-yl]-5-fluoro-2-hydroxy-benzonitrile] | < 0.01 µM | 
N#Cc1cccc(-c2ccc3ncc(-c4cc(F)cc(F)c4)c(N4CC[C@@H](N)[C@H](C(=O)O)C4)c3c2)c1O [2-145] | 0.1 to 1 µM | 
Cc1ccc(F)c(C=NO)c1-c1ccc2ncc(-c3cc(F)cc(F)c3)c(N3CCC(N)CC3)c2c1 [2-202, 1-[3-(3,5-difluorophenyl)-6-{3-fluoro-2-[(hydroxyimino)methyl]-6-methylphenyl}quinolin-4-yl]piperidin-4-amine] | < 0.01 µM | 
NC1CCN(c2c(-c3cc(F)cc(F)c3)cnc3ccc(-c4cc(Cl)c5[nH]c(=O)[nH]c5c4)cc23)CC1 [2-141, 6-[4-(4-aminopiperidin-1-yl)-3-(3,5-difluorophenyl)quinolin-6-yl]-4-chloro-2,3-dihydro-1H-1,3-benzodiazol-2-one] |  | 0.01 to 0.1 µM
